Measured values: US8853424B2 (Japan Science and Technology Agency, priority 2008, dated 2014)

Tests used:
[1] = system: transglutaminase (TGase); experiment: Measurement of TG (TGase inhibitory activity, monodansyl cadaverine / N,N-dimethylcasein fluorescence, FDSS 3000); format: biochemical
Summary of the method: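 Compound (1 μL of 10 mM stock) added to 0.1 mL reaction: 100 mM HEPES-NaOH pH 7.5, 1 mM CaCl2, 20 μM monodansyl cadaverine, 0.05 mg/mL N,N-dimethylcasein, 5 μg/mL TGase. Rate of fluorescence change at 340 nm measured; DMSO control set to 100; TG50 is the concentration halving activity.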

[2] = system: Truncated N-terminal huntington 150 Q-EGFP-Neuron 2a cells; experiment: Measurement of x-Fold (polyglutamine aggregation inhibitory activity); format: cell-based
Protocol: In the present invention, the polyglutamine aggregation inhibitory activity (x-Fold) can be measured, for example, by the method described in the Example.
The number of the aggregated cells, and the total number of cells were counted by Array Scan V T1 (manufactured by Cellomics, Pittuburg, USA), and the ratio of the aggregated cells to the total number of cells was determined (x-Fold). […]

[3] = TGase activity with compound (10 mM, 1 μL in 0.1 ml enzyme reaction solution), DMSO control taken as 100
[4] = TGase inhibitory activity value, Table 1
[5] = polyglutamine aggregation inhibitory activity, Table 1
[6] = ratio of aggregated cells to total number of cells, compound 20 μM, 20 hr, almost 1 without compound, smaller = stronger inhibition
[7] = TGase inhibitory activity measurement, unit not given
[8] = polyglutamine aggregation, Truncated N-terminal huntington 150 Q-EGFP-Neuron 2a cells

Compound	TGase activity remaining (% of DMSO control = 100) [1, 3]	TGase activity remaining (% of DMSO control = 100) [1, 4]	x-Fold [2, 5]	x-Fold [2, 6]	other results
CN(C)CCOB(c1ccccc1)c1cccc2ccccc12 [Example 203, phenyl naphthyl dimethylaminoethylborinate]	97	97	0.97	0.97	–
OB(c1ccc(Cl)c(F)c1)c1ccc(Cl)c(F)c1 [Example 83, bis(3-fluoro-4-chlorophenyl)borinic acid]	101	–	–	0.92	TGase activity remaining (% of DMSO control = 100) ([1]; TGase inhibitory activity value, Table 1, listed as 6012): 101; x-Fold ([2]; polyglutamine aggregation inhibitory activity, Table 1, listed as 6012): 0.92
FC(F)(F)c1ccc(C(OB(c2ccccc2)c2ccc(COCc3ccc(B(OC(c4ccc(C(F)(F)F)cc4)c4ccccn4)c4ccccc4)cc3)cc2)c2ccccn2)cc1 (stereo not drawn) [Example 149, 4,4′-di((phenyl 1-(pyridin-2-yl)-1-trifluoromethylphenylmethoxyboryl)benzyl)ether]	96	–	–	0.99	–
FC(F)(F)c1ccc(C(OB(c2ccccc2)c2ccc(COCc3ccc(B(OC(c4ccc(C(F)(F)F)cc4)c4ccccn4)c4ccc(COCc5ccc(B(OC(c6ccc(C(F)(F)F)cc6)c6ccccn6)c6ccccc6)cc5)cc4)cc3)cc2)c2ccccn2)cc1 (stereo not drawn) [Example 192, bis((4,4′-phenyl 2-pyridyl-4-trifluoromethylphenylmethoxyboryl)benzyloxybenzyl) 2-pyridyl-4-trifluoromethyl phenylmethoxyborane]	102	102	0.95	0.95	–
diphenyl(FITC-2,6-diaminocapronate-O,N)borane [Example 177]	28	28	1.00	1.00	–
FITC aminoethylaminoethyl diphenylborinate [Example 161]	6	6	0.99	0.99	–
N#Cc1ccc(B(SCCN)c2ccc(C#N)cc2)cc1 [Example 106, 2-aminoethylthio bis(4-cyanophenyl)borane]	23	23	0.92	0.92	–
OB(c1ccccc1)c1ccccc1B(O)c1ccccc1 [Example 297, 1,2-di(phenylhydroxyboryl)benzene]	89	–	–	0.69	TGase activity remaining (% of DMSO control = 100) ([1]; TGase inhibitory activity value, Table 1, listed as 806): 89; x-Fold ([2]; polyglutamine aggregation inhibitory activity, Table 1, listed as 806): 0.69
NCCNCCOB(c1ccccc1)c1ccccc1 [Example 154, diphenyl 2-aminoethylaminoethyl borinate]	105	105	0.96-	0.96	–
CCCCB(OCCN)c1ccccc1 [Example 112, aminoethyl normal-butyl phenylborinate]	123	123	0.99	0.99	–
NCCCC(N)C(=O)OB(c1ccccc1)c1ccccc1 (stereo not drawn) [Example 179, diphenyl(2,5-diaminopentanate-O,N)borane]	127	–	–	0.99	TGase activity remaining (% of DMSO control = 100) ([1]; TGase inhibitory activity value, Table 1, listed as 2044): 127; x-Fold ([2]; polyglutamine aggregation inhibitory activity, Table 1, listed as 2044): 0.99
Cc1ccc(B(OCCN)c2ccc(B(OCCN)c3ccc(C)c(Cl)c3)cc2)cc1Cl [Example 128, 1,4-bis(3-chloro-4-methylphenyl-2-aminoethoxyboryl)benzene]	143	143	0.93	0.93	–
NCCOB(c1ccc(C(F)(F)F)cc1)c1ccc(C(F)(F)F)cc1 [Example 181, di(trifluoromethylphenyl) 2-aminoethylborinate]	54	–	–	0.69	–
COc1ccc(B(O)c2cccc(COCc3cccc(B(O)c4ccc(OC)cc4)c3)c2)cc1 [Example 328, bis(3-(4-methoxyphenylhydroxyboryl)benzyl)ether]	100	–	–	1.04	–
c1ccc(B(OCc2ccccn2)c2ccc(COCc3ccc(B(OCc4ccccn4)c4ccccc4)cc3)cc2)cc1 [Example 184, di(4-(phenyl-2-pyridylmethoxyboryl)benzyl)ether]	94	94	0.95	0.95	–
N#Cc1ccc(B(OCc2ccccn2)c2ccc(C#N)cc2)cc1 [Example 104, 2-pyridylmethyl bis(4-cyanophenyl)borinate]	94	94	1.16	1.16	–

The next lines start with results.

TGase activity remaining (% of DMSO control = 100) [1, 3]	TGase activity remaining (% of DMSO control = 100) [1, 4]	Compound	x-Fold [2, 5]	x-Fold [2, 6]	other results
102	–	CN(C)CCOB(c1ccc(Oc2ccc(B(OCCN(C)C)c3cccc4ccccc34)cc2)cc1)c1cccc2ccccc12 [Example 442, bis(4,4′-(naphthyldimethylaminoethoxyboryl)phenyl)ether]	0.92	0.58	TGase activity remaining (% of DMSO control = 100) [1, 7]: 102; x-Fold [2, 8]: 0.58
88	88	NCCOB(c1ccccc1)c1ccc2ccccc2c1-c1c(B(OCCN)c2ccccc2)ccc2ccccc12 [Example 360, 2,2′-di(phenylaminoethoxyboryl)-1,1′-binaphthyl]	1.05	1.05	–
108	–	NCCOB(c1ccccc1)c1ccc2sc3ccc(B(OCCN)c4ccccc4)cc3c2c1 [Example 408, 2,8-di(phenylaminoethoxyboryl)dibenzothiophene]	–	0.92	TGase activity remaining (% of DMSO control = 100) [1, 7]: 108; x-Fold [2, 8]: 0.92
52	52	OB(c1ccccc1)c1ccccc1CCOCc1ccccc1B(O)c1ccccc1 [Example 368, (2-(phenylhydroxyboryl)phenethyl)((2-phenylhydroxyboryl)benzyl)ether]	1.03	1.03	–
103	103	OB(c1ccccc1)c1ccc(B(O)c2ccccc2)o1 [Example 383, bis(2,5-(phenylhydroxyboryl))furan]	0.92	0.92	–
53	–	Cc1ccc(B(OC(=O)C(N)CCCCN)c2ccc(Oc3ccc(B(OC(=O)C(N)CCCCN)c4ccc(C)cc4)cc3)cc2)cc1 (stereo not drawn) [Example 450, bis(4,4′-(tolyllysineboryl)phenyl)ether]	–	0.49	TGase activity remaining (% of DMSO control = 100) [1, 7]: 53; x-Fold [2, 8]: 0.49
52	–	CNCCOB(c1ccccc1)c1ccc(COCc2ccc(B(OCCNC)c3ccccc3)cc2)cc1 [Example 400, bis(4,4′-(phenyl-N-methylaminoethoxyboryl)benzyl)ether]	–	1.01	TGase activity remaining (% of DMSO control = 100) [1, 7]: 52; x-Fold [2, 8]: 1.01
